Experimental findings from PubChem BioAssay (NCI) are described below.

Among the test systems are NCI-H460 lung; UO-31 renal; SNB-75 CNS; SW-620 colon; PC-3 prostate; RXF 393 renal; BT-549 breast; LOX IMVI melanoma; 786-0 renal; SNB-19 CNS.
Holding throughout (assay): DTP human tumour cell line panel, 48 h

The structures appear in SMILES notation.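 Five concentrations, 48 hours, 96-well plates. GI50 marks 50% less growth. TGI marks complete inhibition of growth.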 Where only a bound is given, the exact number is not on record here.

As to `CCOc1ccc(NCC2CC/C(=C\C=C\c3ccccc3)C2=O)cc1` (configuration not stated), the TGI – broadly, the concentration giving total growth inhibition – in the assay on NCI-H460 lung is > 80.8 µM; in the assay with UO-31 renal, 66.2 µM; in the assay with SNB-75 CNS, 59.9 µM; with SW-620 colon, 21.3 µM; with PC-3 prostate, 49.8 µM; in the assay with RXF 393 renal it was 29.6 µM. Besides, the TGI with BT-549 breast stood at 33 µM; in the assay with LOX IMVI melanoma, 23.5 µM; in the assay on 786-0 renal, 13.5 µM; in the assay with SNB-19 CNS, 60.9 µM.
As for `COc1cc2c3c(cc(Cl)nc3c1OC)C(=O)C(=O)N2`, the TGI was 42.7 µM in the assay with NCI-H460 lung; 26.7 µM in the assay with UO-31 renal; 29.4 µM in the assay with SNB-75 CNS; > 55.5 µM with SW-620 colon; 27.6 µM with PC-3 prostate; 27.5 µM with RXF 393 renal. The TGI with BT-549 breast came out at 29.8 µM; with LOX IMVI melanoma, 25.9 µM; with 786-0 renal, 13.4 µM; with SNB-19 CNS, 42.6 µM.
Turning to `CCCCCCc1cc2cc(-c3csc(-c4ccc(OC)cc4)n3)c(=O)oc2cc1O`, the TGI with NCI-H460 lung amounted to 41 µM; in the assay with UO-31 renal it was 19.8 µM; in the assay on SNB-75 CNS, 47.2 µM; with SW-620 colon it was 34.3 µM; with PC-3 prostate, 41.5 µM; in the assay with RXF 393 renal, 29.2 µM. For the same compound, the TGI amounted to 7.38 µM in the assay with BT-549 breast, 30.4 µM with LOX IMVI melanoma, 18 µM with 786-0 renal and 36 µM in the assay on SNB-19 CNS.
On to `C#CCOCC12C=CC(O1)C1COC(=O)C12` (configuration not stated), for which the TGI in the assay on NCI-H460 lung, with UO-31 renal, with SNB-75 CNS, with SW-620 colon, with PC-3 prostate and with RXF 393 renal was > 100 µM throughout. The TGI in the assay on BT-549 breast, in the assay with LOX IMVI melanoma, in the assay with 786-0 renal and with SNB-19 CNS was > 100 µM each time.
Take `O=C(Sc1c(-c2ccccc2)c(=O)n(-c2ccccc2)c(=S)n1-c1ccccc1)c1ccco1`: the TGI with NCI-H460 lung, in the assay with UO-31 renal, with SNB-75 CNS, with SW-620 colon, with PC-3 prostate and in the assay with RXF 393 renal was > 100 µM throughout. For the same compound, the TGI in the assay on BT-549 breast, with LOX IMVI melanoma, in the assay on 786-0 renal and with SNB-19 CNS was > 100 µM in each case.
In the case of `CCOc1ccc(N=Nc2ccc3cc(/C(C)=N/NC(=O)/C(C#N)=C\c4ccc(N(CCC#N)CCC#N)cc4)c(=O)oc3c2)cc1`, the TGI in the assay with NCI-H460 lung, in the assay on UO-31 renal, in the assay with SNB-75 CNS, with SW-620 colon, with PC-3 prostate and in the assay with RXF 393 renal was > 10 µM in each case. The TGI in the assay with BT-549 breast, in the assay on LOX IMVI melanoma, with 786-0 renal and in the assay with SNB-19 CNS was > 10 µM throughout.
Consider `CCOC(=O)/C=C(/C=C\COC1CCCCO1)c1ccccc1` (configuration not stated), for which the TGI in the assay with NCI-H460 lung is > 100 µM; in the assay on UO-31 renal, > 100 µM; with SNB-75 CNS it was 69.7 µM; in the assay with SW-620 colon it was 80.4 µM; in the assay with PC-3 prostate, > 100 µM; in the assay with RXF 393 renal, 55.3 µM. Further, the TGI is > 100 µM in the assay on BT-549 breast, 30.9 µM in the assay on LOX IMVI melanoma, 62.7 µM with 786-0 renal and > 100 µM with SNB-19 CNS.
With `O=C1CS/C(=N/N=C/c2cn(Cc3ccc(Cl)cc3Cl)c3ccccc23)N1`, the TGI with NCI-H460 lung is > 100 µM; in the assay on UO-31 renal, > 100 µM; in the assay on SNB-75 CNS it was 54.4 µM; in the assay with SW-620 colon, > 100 µM; with PC-3 prostate, 76.8 µM; in the assay with RXF 393 renal, 77.2 µM. Moreover, the TGI in the assay with BT-549 breast is > 100 µM; with LOX IMVI melanoma, > 100 µM; in the assay with 786-0 renal, 53.2 µM; in the assay with SNB-19 CNS, > 100 µM.
In the case of `Cc1nnc2n1-c1ccccc1N(Cc1ccccc1)CC2`, the TGI in the assay with NCI-H460 lung, in the assay with UO-31 renal, in the assay with SNB-75 CNS, in the assay with SW-620 colon, in the assay with PC-3 prostate and with RXF 393 renal was > 100 µM in each case. The TGI is 76.2 µM in the assay on BT-549 breast, > 100 µM with LOX IMVI melanoma, > 100 µM in the assay on 786-0 renal and > 100 µM in the assay with SNB-19 CNS.
On to `O=C1CC(c2ccccc2Cl)C2(C(=O)NC(=O)NC2=O)C(c2ccccc2Cl)C1` (configuration not stated), for which the TGI is > 100 µM in the assay with NCI-H460 lung; > 100 µM with UO-31 renal; > 100 µM in the assay on SNB-75 CNS; > 100 µM in the assay with SW-620 colon; > 100 µM in the assay on PC-3 prostate; 85.2 µM with RXF 393 renal. Also, the TGI in the assay on BT-549 breast, with LOX IMVI melanoma, in the assay on 786-0 renal and in the assay on SNB-19 CNS was > 100 µM in each case.
On to `CCCCCCCCCCCCOCCOCCOCCOCCOCCOCC(=O)NC(Cc1ccccc1)C(=O)Oc1ccc([N+](=O)[O-])cc1` (configuration not stated), for which the TGI with NCI-H460 lung, in the assay on UO-31 renal, in the assay on SNB-75 CNS, in the assay on SW-620 colon, in the assay on PC-3 prostate and in the assay with RXF 393 renal was > 100 µM throughout. In addition, the concentration for total growth inhibition (TGI) in the assay on BT-549 breast, in the assay with LOX IMVI melanoma, in the assay with 786-0 renal and in the assay on SNB-19 CNS was > 100 µM throughout.
`C=C1C[C@@H]2CC[C@@]34C[C@H]5O[C@H]6[C@@H](O3)[C@H]3O[C@H](CC[C@@H]3O[C@H]6[C@H]5O4)CC(=O)C[C@@H]3[C@@H](OC)[C@@H](C[C@H](O)CN)O[C@H]3C[C@H]3O[C@@H](CC[C@@H]1O2)C[C@@H](C)C3=C`: the total growth inhibition concentration (TGI) with NCI-H460 lung is 0.161 µM; with UO-31 renal, > 1 µM; with SNB-75 CNS, > 1 µM; with SW-620 colon, > 1 µM; in the assay with PC-3 prostate it was > 0.12 µM; with BT-549 breast it was > 1 µM. The TGI is > 0.533 µM with LOX IMVI melanoma, > 1 µM in the assay on 786-0 renal and > 1 µM in the assay with SNB-19 CNS. Also, the GI50 (as a rule, the concentration that inhibits growth by half) in the assay on SNB-75 CNS is 0.00046 µM; with RXF 393 renal it was 0.00255 µM; with SNB-19 CNS, 0.00127 µM.
As for `O=C(/C=C\Nc1ccccc1O)C(F)(F)F`, the TGI in the assay with NCI-H460 lung, with UO-31 renal, with SNB-75 CNS, with SW-620 colon, in the assay on PC-3 prostate and in the assay on RXF 393 renal was > 100 µM in each case. For the same compound, the TGI with BT-549 breast, in the assay on LOX IMVI melanoma, in the assay with 786-0 renal and in the assay on SNB-19 CNS was > 100 µM throughout.
